Experiments:
[1] = Solubility test in fats or oils (crystal formation after standing overnight at room temperature); assay type: physicochemical
Excerpt: Three samples were used and they included not only a mixture of sesamin and episesamin (sesamin:episesamin=51.1:48.2) but also sesamin and episesamin that were individually purified from the mixture. The wheat germ oil was a product of RIKEN VITAMIN CO., LTD.; the olive oil was a product of nakalai tesque; used as middle-chain fatty acids (MCTs) were ACTOR M-1 (a triglyceride of middle-chain fatty acid with C8:C10:C12=56:42:2) and ACTOR M-2 (a triglyceride of C8 middle-chain fatty acid), both being products of RIKEN VITAMIN CO., LTD. The diacylglycerol was a commercial fat or oil (Econa Cooking Oil of KAO CORPORATION, an edible oil containing about 80% diacylglycerol).
Into test tubes, there were weighed 2 g of the respective fats or oils and various concentrations of the samples that increased from 0.5 to 10% (by weight) by an increment of 0.25%. Then, the test tubes were heated to 120° C. so that sesamin completely dissolved in the fats or oils. Thereafter, the test tubes were allowed to stand overnight at room temperature to examine whether crystals would be formed or not.

[2] = design: species or system rats; conditions: rat, in vivo
Excerpt: It may well be said that a preferred mode of ingesting sesamin and/or episesamin is by dissolving them in fat or oil; however, sesamin and/or episesamin is only slightly soluble and has such low solubility in fat or oil (wheat germ oil) that not only is it difficult to incorporate them at high concentrations but, at the same time, even if they are incorporated at low concentrations, a crystal may precipitate during storage on account of their low storage stability. This crystal precipitation can potentially result in lowered absorbability, so considering the storage stability, there has been no alternative to incorporating them at concentrations considerably lower than their solubility in fat or oil (wheat germ oil). Under these circumstances, when one made an attempt to increase the dose of sesamin and/or episesamin that could be ingested at a time, the amount of the solvent fat or oil also had to be increased, inevitably resulting in an excessive calorie intake. In addition, the volume of the sesamin and/or episesamin containing composition that is prescribed becomes so large per unit dosage or their quantities to be ingested become so large that inconveniences in ingestion have occasionally occurred. […]

[3] = test system: β-oxidation enzymes in the liver; conditions: as compared with sesamin; cited from earlier work

SMILES	factor of solubility improvement over wheat germ oil [1]	bodily absorption, solution in fat or oil vs suspension in water [2]	gene expression and enzymatic activity of β-oxidation enzymes in the liver [3]
c1cc2c(cc1[C@H]1OC[C@H]3[C@@H]1CO[C@@H]3c1ccc3c(c1)OCO3)OCO2 [Episesamin, episesamin]	2.5-5.5	significantly superior in bodily absorption	markedly increasing
c1cc2c(cc1[C@H]1OC[C@H]3[C@@H]1CO[C@@H]3c1ccc3c(c1)OCO3)OCO2 [Sesamin, sesamin]	2.5-5.5	significantly superior in bodily absorption	–
